Measured values published in PubChem BioAssay (NCI).
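A five-concentration, 48-hour dose response in 96-well plates underlies each endpoint, interpolated linearly between surrounding concentrations. Definition used: TGI = concentration required for complete inhibition of growth.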

What was measured:
Experiment in all cases: growth of human tumour cells (NCI), 48 h
LXFL 529 NSCLC = system: LXFL 529 NSCLC
SF-539 CNS = system: SF-539 CNS
SK-MEL-2 melanoma = system: SK-MEL-2 melanoma
SF-268 CNS = system: SF-268 CNS
SK-MEL-5 melanoma = system: SK-MEL-5 melanoma
SR leukemia = system: SR leukemia
M19-MEL melanoma = system: M19-MEL melanoma
MALME-3M melanoma = system: MALME-3M melanoma
DMS 114 small cell lung = system: DMS 114 small cell lung
UACC-62 melanoma = system: UACC-62 melanoma
LOX IMVI melanoma = system: LOX IMVI melanoma
OVCAR-3 ovarian = system: OVCAR-3 ovarian
NCI-H460 lung = system: NCI-H460 lung
ACHN renal = system: ACHN renal
HCT-116 colon = system: HCT-116 colon
NCI-H522 lung = system: NCI-H522 lung
KM12 colon = system: KM12 colon
CAKI-1 renal = system: CAKI-1 renal
KM20L2 colon = system: KM20L2 colon
SNB-78 CNS = system: SNB-78 CNS
A549 NSCLC = system: A549 NSCLC
IGROV1 ovarian = system: IGROV1 ovarian
HOP-62 NSCLC = system: HOP-62 NSCLC
SK-OV-3 ovarian = system: SK-OV-3 ovarian
M14 melanoma = system: M14 melanoma
HCT-15 colon = system: HCT-15 colon
SNB-75 CNS = system: SNB-75 CNS
SW-620 colon = system: SW-620 colon
SN12C renal = system: SN12C renal
SK-MEL-28 melanoma = system: SK-MEL-28 melanoma
TK-10 renal = system: TK-10 renal
HOP-92 NSCLC = system: HOP-92 NSCLC
A498 renal = system: A498 renal
OVCAR-5 ovarian = system: OVCAR-5 ovarian
HT29 colon = system: HT29 colon
U251 CNS = system: U251 CNS
UO-31 renal = system: UO-31 renal
K-562 leukemia = system: K-562 leukemia
DLD-1 colon = system: DLD-1 colon
OVCAR-4 ovarian = system: OVCAR-4 ovarian
NCI-H23 lung = system: NCI-H23 lung
HOP-18 NSCLC = system: HOP-18 NSCLC
MOLT-4 leukemia = system: MOLT-4 leukemia
COLO 205 colon = system: COLO 205 colon
OVCAR-8 ovarian = system: OVCAR-8 ovarian
NCI-H226 lung = system: NCI-H226 lung
RPMI-8226 leukemia = system: RPMI-8226 leukemia
UACC-257 melanoma = system: UACC-257 melanoma
DMS 273 small cell lung = system: DMS 273 small cell lung
SF-295 CNS = system: SF-295 CNS
HL-60(TB) leukemia = system: HL-60(TB) leukemia
EKVX NSCLC = system: EKVX NSCLC
786-0 renal = system: 786-0 renal
SNB-19 CNS = system: SNB-19 CNS
RXF 393 renal = system: RXF 393 renal
CCRF-CEM leukemia = system: CCRF-CEM leukemia
XF 498 CNS = system: XF 498 CNS
HCC-2998 colon = system: HCC-2998 colon

Measured: TGI

COc1cc2c(cc1OC)C1C(=O)c3c(O)cc4c(c3OC1CO2)C=CC(C)(C)O4 (stereo unspecified)
94 µM: LXFL 529 NSCLC
72.9 µM: MALME-3M melanoma
25.7 µM: DMS 114 small cell lung
25.3 µM: SK-MEL-5 melanoma
55.6 µM: HOP-62 NSCLC
59.2 µM: UO-31 renal
74.5 µM: HOP-92 NSCLC
38.8 µM: LOX IMVI melanoma
5.45 µM: NCI-H522 lung
76.3 µM: M14 melanoma
96.4 µM: SNB-75 CNS
68.3 µM: KM12 colon
70.6 µM: HCT-116 colon
89.5 µM: KM20L2 colon
65.5 µM: OVCAR-3 ovarian
50.7 µM: SK-MEL-2 melanoma
61.4 µM: M19-MEL melanoma
52.3 µM: UACC-62 melanoma
> 100 µM: SF-539 CNS | SF-268 CNS | SR leukemia | ACHN renal | CAKI-1 renal | SNB-78 CNS | A549 NSCLC | IGROV1 ovarian | SK-OV-3 ovarian | HCT-15 colon | SW-620 colon | SN12C renal | SK-MEL-28 melanoma | TK-10 renal | A498 renal | OVCAR-5 ovarian | HT29 colon
93.1 µM: NCI-H460 lung
93.2 µM: U251 CNS

C=CCNC(=S)N1CC(C)C(=O)Nc2cc(Cl)ccc21 (stereo unspecified)
not listed: LOX IMVI melanoma | OVCAR-3 ovarian | SW-620 colon | CCRF-CEM leukemia | XF 498 CNS | HCC-2998 colon
> 100 µM: all other assays above

CO[C@@H]1C=C[C@@]23c4cc5c(cc4CN(C[C@@H]2O)[C@H]3C1)OCO5
64.2 µM: UACC-62 melanoma
69.5 µM: MOLT-4 leukemia
73.1 µM: U251 CNS
50.6 µM: SNB-75 CNS
49.1 µM: CAKI-1 renal
80.6 µM: HOP-92 NSCLC
50.7 µM: NCI-H522 lung
76 µM: MALME-3M melanoma
77.6 µM: SR leukemia
87.9 µM: SN12C renal
83.2 µM: HOP-18 NSCLC
39.2 µM: HL-60(TB) leukemia
56.6 µM: HCC-2998 colon
80.9 µM: LOX IMVI melanoma
49.2 µM: SK-MEL-2 melanoma
18.8 µM: OVCAR-4 ovarian
62.2 µM: UO-31 renal
47.7 µM: CCRF-CEM leukemia
31.5 µM: M14 melanoma
not listed: SK-MEL-5 melanoma | HCT-116 colon | HOP-62 NSCLC | A498 renal | COLO 205 colon | DMS 273 small cell lung
> 100 µM: all other assays above

c1ccc(-c2nc3ccccc3nc2SCc2cccnc2)cc1
not listed: SF-539 CNS | SK-MEL-2 melanoma | SK-MEL-5 melanoma | SR leukemia | M19-MEL melanoma | UACC-62 melanoma | LOX IMVI melanoma | NCI-H460 lung | NCI-H522 lung | KM12 colon | CAKI-1 renal | KM20L2 colon | IGROV1 ovarian | HOP-62 NSCLC | HCT-15 colon | SW-620 colon | TK-10 renal | A498 renal | OVCAR-5 ovarian | DLD-1 colon | RXF 393 renal | HCC-2998 colon
> 100 µM: all other assays above

CC(=O)OCC1OC(n2ccc(=O)[nH]c2=O)C(OC(C)=O)C(OC(C)=O)C1OC(C)=O (stereo unspecified)
not listed: SF-539 CNS | SNB-78 CNS | MOLT-4 leukemia | HL-60(TB) leukemia
> 100 µM: all other assays above
